In PubChem BioAssay (NCI):
Where “and” joins values, the source holds several entries; their conditions need not be identical. Identical values can stand only once.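 Step 1: Grow cells in 96-well plates. Step 2: Expose to compound for 48 hours at 5 concentrations. Step 3: Interpolate endpoints linearly; if unreached, use highest concentration. Abbreviation: GI50, concentration required for 50% inhibition of growth. TGI marks complete inhibition of growth.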

test system: 786-0 renal; assay: inhibition of tumour cell growth, NCI panel, 48 h

Structure (SMILES) | GI50 [µM] | TGI
Nc1cc2nc3ccccc3sc-2cc1=O | 4.21 | 14.5 µM
COc1cc2nc(-c3ccc(C(F)(F)F)cc3)cc(OCCCN3CCC(O)CC3)c2cc1OC | 4.72 | 19.8 µM
O=C1NNC(=O)c2ccccc2SSc2ccccc2C(=O)NNC(=O)c2ccccc2SSc2ccccc21 | 10 | 50 µM and 26.6 µM
COc1cc(C(=O)/C=C/c2sc(Cl)nc2Cl)cc(OC)c1OC | 1.84 | 3.42 µM
COc1cc2nc(C)nc(N[C@H](C)c3cc(N)cc(C(F)(F)F)c3)c2cc1O[C@H]1CCOC1 | 9.82 | 23.1 µM
O=C1c2ccccc2C(=O)c2sc(Nc3cccc(Cl)c3)nc21 |  | 3.74 µM
CC1=C(C(=O)Nc2ccc(F)c(Cl)c2)C(c2ccc(Cl)cc2)NC(=O)N1 (stereo not drawn) | 16.5 | 31.7 µM
Fc1ccc(Nc2ncnc3ccc(-c4cnc5[nH]ccc5c4)cc23)cc1Cl | 1.57 | 3.27 µM
CN(C)CCCNC1=C(Cl)C(=O)c2ccccc2C1=O | 11.3 | 24.2 µM
O=C(Nc1ccc(F)cc1F)c1cc(I)ccc1O | 3.13 | 9.7 µM
CCOc1ccccc1-n1c(CN2CCN(C(=O)COc3ccc(CNCCCCCCN4C5CCCC4CC(OC(=O)Nc4cc(C)ccc4OC)C5)cc3)CC2)nc2ccccc2c1=O (stereo not drawn) | 1.58 | 3.09 µM
CSc1ccccc1C#C/C=C\C#Cc1ccccc1N1CCCC1=O | > 22 | > 50 µM
NC1CCC(Nc2nc(NCc3ccc(-c4ccco4)nc3)c3ncn(C4CCCC4)c3n2)CC1 (stereo not drawn) | 0.0732 | 1.8 µM
O=C(CCl)N1c2ccccc2Oc2ccc3ccccc3c21 | 2.05 | 3.56 µM
CCCCCCCCSC1=CC(=O)c2nc3ccccc3c3ccnc1c23 | > 100 | > 100 µM
Cc1ccc(-c2nnc(-c3ccc4ccccc4c3)o2)cc1 |  | > 100 µM
COc1ccc(-c2cc(-c3ccc(Nc4nc(Nc5ccccc5)nc(Nc5ccc(Cl)cc5)n4)cc3)nc(N)c2C#N)cc1 | 1.05 | 2.06 µM
O=c1n(CC2CO2)c(=O)n(CC2CO2)n1CC1CO1 (stereo not drawn) | 4.78 | > 83.2 µM

test system: HS 578T breast; assay: inhibition of tumour cell growth, NCI panel, 48 h

Structure (SMILES) | GI50 [µM] | TGI
Nc1cc2nc3ccccc3sc-2cc1=O | 2.21 | 6.24 µM
COc1cc2nc(-c3ccc(C(F)(F)F)cc3)cc(OCCCN3CCC(O)CC3)c2cc1OC | 3.75 | 20.9 µM
O=C1NNC(=O)c2ccccc2SSc2ccccc2C(=O)NNC(=O)c2ccccc2SSc2ccccc21 | > 100 | > 100 µM
COc1cc(C(=O)/C=C/c2sc(Cl)nc2Cl)cc(OC)c1OC | 2.02 | 5.54 µM
COc1cc2nc(C)nc(N[C@H](C)c3cc(N)cc(C(F)(F)F)c3)c2cc1O[C@H]1CCOC1 | 14.7 | 38.9 µM
O=C1c2ccccc2C(=O)c2sc(Nc3cccc(Cl)c3)nc21 | 2.82 | 9.15 µM
CC1=C(C(=O)Nc2ccc(F)c(Cl)c2)C(c2ccc(Cl)cc2)NC(=O)N1 (stereo not drawn) | 21.5 | 51.1 µM
Fc1ccc(Nc2ncnc3ccc(-c4cnc5[nH]ccc5c4)cc23)cc1Cl | 2.66 | > 45.9 µM
CN(C)CCCNC1=C(Cl)C(=O)c2ccccc2C1=O | 2.2 | 7.02 µM
O=C(Nc1ccc(F)cc1F)c1cc(I)ccc1O | 2.37 | 8.07 µM
CCOc1ccccc1-n1c(CN2CCN(C(=O)COc3ccc(CNCCCCCCN4C5CCCC4CC(OC(=O)Nc4cc(C)ccc4OC)C5)cc3)CC2)nc2ccccc2c1=O (stereo not drawn) | 1.86 | 3.94 µM
CSc1ccccc1C#C/C=C\C#Cc1ccccc1N1CCCC1=O | > 9.95 | > 50 µM
NC1CCC(Nc2nc(NCc3ccc(-c4ccco4)nc3)c3ncn(C4CCCC4)c3n2)CC1 (stereo not drawn) | 0.0205 | 0.0955 µM and 0.347 µM
O=C(CCl)N1c2ccccc2Oc2ccc3ccccc3c21 | 2.29 | 
CCCCCCCCSC1=CC(=O)c2nc3ccccc3c3ccnc1c23 | > 100 | > 100 µM
Cc1ccc(-c2nnc(-c3ccc4ccccc4c3)o2)cc1 |  | > 100 µM
COc1ccc(-c2cc(-c3ccc(Nc4nc(Nc5ccccc5)nc(Nc5ccc(Cl)cc5)n4)cc3)nc(N)c2C#N)cc1 | 1.21 | 5.08 µM
O=c1n(CC2CO2)c(=O)n(CC2CO2)n1CC1CO1 (stereo not drawn) | > 100 | > 100 µM

test system: M14 melanoma; assay: inhibition of tumour cell growth, NCI panel, 48 h

Structure (SMILES) | GI50 [µM] | TGI
Nc1cc2nc3ccccc3sc-2cc1=O | 1.66 | 3.2 µM
COc1cc2nc(-c3ccc(C(F)(F)F)cc3)cc(OCCCN3CCC(O)CC3)c2cc1OC | 0.535 | 2.26 µM
O=C1NNC(=O)c2ccccc2SSc2ccccc2C(=O)NNC(=O)c2ccccc2SSc2ccccc21 | 6.28 | 50 µM and 32.5 µM
COc1cc(C(=O)/C=C/c2sc(Cl)nc2Cl)cc(OC)c1OC | 1.85 | 3.57 µM
COc1cc2nc(C)nc(N[C@H](C)c3cc(N)cc(C(F)(F)F)c3)c2cc1O[C@H]1CCOC1 | 16.1 | 31.7 µM
O=C1c2ccccc2C(=O)c2sc(Nc3cccc(Cl)c3)nc21 |  | 3.24 µM
CC1=C(C(=O)Nc2ccc(F)c(Cl)c2)C(c2ccc(Cl)cc2)NC(=O)N1 (stereo not drawn) | 16.5 | 33.6 µM
Fc1ccc(Nc2ncnc3ccc(-c4cnc5[nH]ccc5c4)cc23)cc1Cl | 4.35 | > 100 µM
